What all share (type): functional
Assay [1] has as its system Pseudomonas aeruginosa. As to the kind of experiment: Antibacterial activity against carbapenem-resistant Pseudomonas aeruginosa clinical isolate ets15 assessed as inhibition of bacterial growth incubated for 24 hrs by CLSI protocol based broth microdilution method. On the technique in general: In broth dilution the organism is exposed to a series of concentrations in liquid medium.

Assay [2] has as its system Pseudomonas aeruginosa. As to the kind of experiment: Antibacterial activity against carbapenem-resistant Pseudomonas aeruginosa clinical isolate ets38 assessed as inhibition of bacterial growth incubated for 24 hrs by CLSI protocol based broth microdilution method.
Assay [3] deals with Klebsiella pneumoniae. Description: Antibacterial activity against carbapenem-resistant Klebsiella pneumoniae ATCC BAA-1705 assessed as inhibition of bacterial growth incubated for 16 to 20 hrs by CLSI protocol based broth microdilution method. Conditions: time 16-20 hrs.
Assay [4] deals with Pseudomonas aeruginosa. As to the kind of experiment: Antibacterial activity against Pseudomonas aeruginosa ATCC 27853 assessed as inhibition of bacterial growth incubated for 16 to 20 hrs by CLSI protocol based broth microdilution method. Conditions: time 16-20 hrs.
Assay [5] has as its system Pseudomonas aeruginosa. As to the kind of experiment: Antibacterial activity against carbapenem-resistant Pseudomonas aeruginosa clinical isolate ets5 assessed as inhibition of bacterial growth incubated for 24 hrs by CLSI protocol based broth microdilution method.
Assay [6] relates to Pseudomonas aeruginosa. Description: Antibacterial activity against carbapenem-resistant Pseudomonas aeruginosa clinical isolate ets49 assessed as inhibition of bacterial growth incubated for 24 hrs by CLSI protocol based broth microdilution method.
The subject of assay [7] is Acinetobacter baumannii. Description: Antibacterial activity against carbapenem-resistant Acinetobacter baumannii clinical isolate ets123 assessed as inhibition of bacterial growth incubated for 24 hrs by CLSI protocol based broth microdilution method.
Assay [8] concerns Escherichia coli. As to the kind of experiment: Antibacterial activity against carbapenem-resistant Escherichia coli clinical isolate 231109W005 assessed as inhibition of bacterial growth incubated for 24 hrs by CLSI protocol based broth microdilution method.
The subject of assay [9] is Acinetobacter baumannii. Description: Antibacterial activity against carbapenem-sensitive Acinetobacter baumannii clinical isolate 19-1 assessed as inhibition of bacterial growth incubated for 16 to 20 hrs by CLSI protocol based broth microdilution method. Conditions: time 16-20 hrs.
Assay [10] deals with Klebsiella pneumoniae. Description: Antibacterial activity against carbapenem-resistant Klebsiella pneumoniae clinical isolate ets45 assessed as inhibition of bacterial growth incubated for 24 hrs by CLSI protocol based broth microdilution method.
For assay [11], the system named is Klebsiella pneumoniae. As to the kind of experiment: Antibacterial activity against carbapenem-resistant Klebsiella pneumoniae clinical isolate KPN+19-15 assessed as inhibition of bacterial growth incubated for 16 to 20 hrs by CLSI protocol based broth microdilution method. Conditions: time 16-20 hrs.
The test system of assay [12] is Klebsiella pneumoniae. Description: Antibacterial activity against carbapenem-resistant Klebsiella pneumoniae clinical isolate ets78 assessed as inhibition of bacterial growth incubated for 24 hrs by CLSI protocol based broth microdilution method.
Assay [13] has as its system Acinetobacter baumannii. Description: Antibacterial activity against Acinetobacter baumannii NCTC 13304 (OXA-27) assessed as inhibition of bacterial growth incubated for 16 to 20 hrs by CLSI protocol based broth microdilution method. Conditions: time 16-20 hrs.
For assay [14], the system named is Escherichia coli. Description: Antibacterial activity against Escherichia coli ATCC BAA-2523 assessed as inhibition of bacterial growth incubated for 16 to 20 hrs by CLSI protocol based broth microdilution method. Conditions: time 16-20 hrs.
Assay [15] deals with Pseudomonas aeruginosa. Description: Antibacterial activity against carbapenem-resistant Pseudomonas aeruginosa clinical isolate ets104 assessed as inhibition of bacterial growth incubated for 24 hrs by CLSI protocol based broth microdilution method.
In assay [16] the test system is Klebsiella pneumoniae. Description: Antibacterial activity against carbapenem-resistant Klebsiella pneumoniae clinical isolate ets40 assessed as inhibition of bacterial growth incubated for 24 hrs by CLSI protocol based broth microdilution method.
The subject of assay [17] is Acinetobacter baumannii. Description: Antibacterial activity against carbapenem-resistant Acinetobacter baumannii clinical isolate ets171 assessed as inhibition of bacterial growth incubated for 24 hrs by CLSI protocol based broth microdilution method.
Assay [18] has as its system Escherichia coli. Description: Antibacterial activity against carbapenem-resistant Escherichia coli clinical isolate 231016w014 assessed as inhibition of bacterial growth incubated for 24 hrs by CLSI protocol based broth microdilution method.
Assay [19] relates to Acinetobacter baumannii. As to the kind of experiment: Antibacterial activity against carbapenem-resistant Acinetobacter baumannii clinical isolate ets178 assessed as inhibition of bacterial growth incubated for 24 hrs by CLSI protocol based broth microdilution method.
The test system of assay [20] is Pseudomonas aeruginosa. Description: Antibacterial activity against carbapenem-resistant Pseudomonas aeruginosa clinical isolate ets33 assessed as inhibition of bacterial growth incubated for 24 hrs by CLSI protocol based broth microdilution method.
The subject of assay [21] is Pseudomonas aeruginosa. As to the kind of experiment: Antibacterial activity against carbapenem-resistant Pseudomonas aeruginosa clinical isolate ets85 assessed as inhibition of bacterial growth incubated for 24 hrs by CLSI protocol based broth microdilution method.
Assay [22] has as its system Pseudomonas aeruginosa. As to the kind of experiment: Antibacterial activity against carbapenem-resistant Pseudomonas aeruginosa clinical isolate ets84 assessed as inhibition of bacterial growth incubated for 24 hrs by CLSI protocol based broth microdilution method.
The test system of assay [23] is Escherichia coli. Description: Antibacterial activity against carbapenem-resistant Escherichia coli clinical isolate 231112E006B assessed as inhibition of bacterial growth incubated for 24 hrs by CLSI protocol based broth microdilution method.
In assay [24] the test system is Pseudomonas aeruginosa. As to the kind of experiment: Antibacterial activity against Pseudomonas aeruginosa ATCC 27853 infected in ICR mouse model infected in ICR mouse model assessed as survival rate at 2 mg/kg, iv administered at 1 and 6 hrs post-infection and measured after 7 days relative to control. Conditions: ATCC 27853, 168 h, time 7 day.
Assay [25] relates to Escherichia coli. As to the kind of experiment: Antibacterial activity against carbapenem-resistant Escherichia coli ATCC BAA-2340 assessed as inhibition of bacterial growth incubated for 16 to 20 hrs by CLSI protocol based broth microdilution method. Conditions: time 16-20 hrs.
For assay [26], the system named is Klebsiella pneumoniae. As to the kind of experiment: Antibacterial activity against carbapenem-resistant Klebsiella pneumoniae clinical isolate ets77 assessed as inhibition of bacterial growth incubated for 24 hrs by CLSI protocol based broth microdilution method.
Assay [27] relates to Klebsiella pneumoniae. As to the kind of experiment: Antibacterial activity against carbapenem-resistant Klebsiella pneumoniae clinical isolate ets26 assessed as inhibition of bacterial growth incubated for 24 hrs by CLSI protocol based broth microdilution method.
The subject of assay [28] is Pseudomonas aeruginosa. As to the kind of experiment: Antibacterial activity against carbapenem-resistant Pseudomonas aeruginosa clinical isolate ets6 assessed as inhibition of bacterial growth incubated for 24 hrs by CLSI protocol based broth microdilution method.
Assay [29] relates to Pseudomonas aeruginosa. Description: Antibacterial activity against carbapenem-resistant Pseudomonas aeruginosa clinical isolate ets22 assessed as inhibition of bacterial growth incubated for 24 hrs by CLSI protocol based broth microdilution method.
Assay [30] deals with Acinetobacter baumannii. Description: Antibacterial activity against carbapenem-resistant Acinetobacter baumannii clinical isolate ets30 assessed as inhibition of bacterial growth incubated for 24 hrs by CLSI protocol based broth microdilution method.
Assay [31] deals with Klebsiella pneumoniae. Description: Antibacterial activity against carbapenem-resistant Klebsiella pneumoniae clinical isolate ets80 assessed as inhibition of bacterial growth incubated for 24 hrs by CLSI protocol based broth microdilution method.
The subject of assay [32] is Klebsiella pneumoniae. Description: Antibacterial activity against carbapenem-resistant Klebsiella pneumoniae clinical isolate ets75 assessed as inhibition of bacterial growth incubated for 24 hrs by CLSI protocol based broth microdilution method.
In assay [33] the test system is Klebsiella pneumoniae. As to the kind of experiment: Antibacterial activity against carbapenem-resistant Klebsiella pneumoniae clinical isolate KPN+19-15 infected in ICR mouse model administered intravenously with compound at 1 and 6 hrs post-infection and measured after 7 days. Conditions: 168 h, route iv, time 7 day.
Assay [34] relates to Klebsiella pneumoniae. As to the kind of experiment: Antibacterial activity against carbapenem-resistant Klebsiella pneumoniae clinical isolate ets74 assessed as inhibition of bacterial growth incubated for 24 hrs by CLSI protocol based broth microdilution method.
The test system of assay [35] is Pseudomonas aeruginosa. Description: Antibacterial activity against carbapenem-resistant Pseudomonas aeruginosa clinical isolate ets83 assessed as inhibition of bacterial growth incubated for 24 hrs by CLSI protocol based broth microdilution method.
In assay [36] the test system is Pseudomonas aeruginosa. Description: Antibacterial activity against carbapenem-resistant Pseudomonas aeruginosa clinical isolate 19-3 assessed as inhibition of bacterial growth incubated for 16 to 20 hrs by CLSI protocol based broth microdilution method. Conditions: time 16-20 hrs.
The test system of assay [37] is Pseudomonas aeruginosa. As to the kind of experiment: Antibacterial activity against carbapenem-resistant Pseudomonas aeruginosa clinical isolate ets55 assessed as inhibition of bacterial growth incubated for 24 hrs by CLSI protocol based broth microdilution method.
In assay [38] the test system is Acinetobacter baumannii. Description: Antibacterial activity against carbapenem-resistant Acinetobacter baumannii clinical isolate ets104 assessed as inhibition of bacterial growth incubated for 24 hrs by CLSI protocol based broth microdilution method.
Assay [39] concerns Klebsiella pneumoniae. Description: Antibacterial activity against carbapenem-resistant Klebsiella pneumoniae clinical isolate KPN+19-15 infected in ICR mouse model assessed as survival rate at 4 mg/kg, iv administered at 1 and 6 hrs post-infection and measured after 7 days relative to control. Conditions: 168 h, time 7 day.
The subject of assay [40] is Pseudomonas aeruginosa. As to the kind of experiment: Antibacterial activity against Pseudomonas aeruginosa ATCC 27853 assessed as inhibition of bacterial growth incubated 24 hrs by cation adjusted Mueller-Hinton broth based method.

Values after ≈ are worked out from the molar mass of the structure shown. Bridge positions count the residues as written; N and C are the ends. Square brackets hold non-standard residues; d marks the D form. Peptide text beside a SMILES is read from it. * marks the point of attachment. X1 = CC[C@H](C)CCCCC(=O)*; Dab = NCC[C@H](N)C(=O)O

Usually MIC stands for the lowest concentration found to suppress growth. The ED50 is the dose that gives a 50% effect, or the effect in half of the subjects. As to `CC(C)CCCCC(=O)N[C@@H](CCN)C(=O)N[C@H](C(=O)N[C@@H](CCN)C(=O)N[C@H]1CCNC(=O)[C@H]([C@@H](C)O)NC(=O)[C@H](CCN)NC(=O)[C@H](CCN)NC(=O)[C@H](CC(C)C)NC(=O)[C@@H](Cc2ccccc2)NC(=O)[C@H](CCN)NC1=O)[C@@H](C)O.CC[C@H](C)CCCCC(=O)N[C@@H](CCN)C(=O)N[C@H](C(=O)N[C@@H](CCN)C(=O)N[C@H]1CCNC(=O)[C@H]([C@@H](C)O)NC(=O)[C@H](CCN)NC(=O)[C@H](CCN)NC(=O)[C@H](CC(C)C)NC(=O)[C@@H](Cc2ccccc2)NC(=O)[C@H](CCN)NC1=O)[C@@H](C)O` (X1-[Dab]T[Dab][Dab][Dab][dF]L[Dab][Dab]T; lactam 4-C), the MIC in the assay with Pseudomonas aeruginosa [1] is 1 µg/mL; in the assay with Pseudomonas aeruginosa [2] it was 4 µg/mL; with Klebsiella pneumoniae [3], 0.125 µg/mL; in the assay with Pseudomonas aeruginosa [4], 0.25 µg/mL; in the assay on Pseudomonas aeruginosa [5] it was 2 µg/mL; with Pseudomonas aeruginosa [6], 4 µg/mL. For the same compound, the minimal inhibitory concentration (MIC) is 1 µg/mL in the assay with Acinetobacter baumannii [7]; less than 0.06 µg/mL with Escherichia coli [8]; 0.25 µg/mL with Acinetobacter baumannii [9]; 2 µg/mL in the assay on Klebsiella pneumoniae [10]; 0.125 µg/mL in the assay with Klebsiella pneumoniae [11]; 0.5 µg/mL with Klebsiella pneumoniae [12]. For the same compound, the MIC with Acinetobacter baumannii [13] is 0.06 µg/mL; in the assay on Escherichia coli [14], no more than 0.03 µg/mL; with Pseudomonas aeruginosa [15] it was 4 µg/mL; in the assay on Klebsiella pneumoniae [16], 1 µg/mL; with Acinetobacter baumannii [17] it was 2 µg/mL; in the assay on Escherichia coli [18], less than 0.06 µg/mL. Also, the MIC in the assay with Acinetobacter baumannii [19] was 2 µg/mL; with Pseudomonas aeruginosa [20], 4 µg/mL; in the assay with Pseudomonas aeruginosa [21], 4 µg/mL; in the assay with Pseudomonas aeruginosa [22] it was 0.5 µg/mL; with Escherichia coli [23], less than 0.06 µg/mL; in the assay with Escherichia coli [25], no more than 0.03 µg/mL. In addition, the MIC in the assay with Klebsiella pneumoniae [26] was determined as 1 µg/mL; in the assay on Klebsiella pneumoniae [27], 2 µg/mL; in the assay with Pseudomonas aeruginosa [28], 2 µg/mL; in the assay on Pseudomonas aeruginosa [29], 4 µg/mL; in the assay on Acinetobacter baumannii [30], 1 µg/mL; in the assay on Klebsiella pneumoniae [31] it was 1 µg/mL. The MIC was 1 µg/mL with Klebsiella pneumoniae [32]; 1 µg/mL in the assay with Klebsiella pneumoniae [34]; 1 µg/mL with Pseudomonas aeruginosa [35]; 0.25 µg/mL with Pseudomonas aeruginosa [36]; 4 µg/mL in the assay on Pseudomonas aeruginosa [37]; 0.125 µg/mL in the assay with Acinetobacter baumannii [38]. Further, in the assay with Pseudomonas aeruginosa [24], the survival at 2 mg/kg was determined as 37.5%. Further, in the assay on Klebsiella pneumoniae [33], the median effective dose (ED50) worked out at 2.7 mg/kg. The survival at 4 mg/kg with Klebsiella pneumoniae [39] was found to be 62.5%.

As for `CO[C@H]1/C=C/O[C@@]2(C)Oc3c(C)c(O)c4c(O)c(c(/C=N/N5CCN(C)CC5)c(O)c4c3C2=O)NC(=O)/C(C)=C\C=C\[C@H](C)[C@H](O)[C@@H](C)[C@@H](O)[C@@H](C)[C@H](OC(C)=O)[C@@H]1C` [RIFAMPIN], the MIC with Pseudomonas aeruginosa [40] turned out to be 32 µg/mL (≈ 38.9 µM).

The record behind these values is ChEMBL document CHEMBL6078630, “Design, synthesis, and bioactivity investigation of novel cyclic lipopeptide antibiotics targeting top-priority multidrug-resistant gram-negative bacteria” (Eur J Med Chem, 2024).
